Each molecule was assayed against T1, His-PKC-theta (Homo sapiens, UniProt Q04759) (assay: PKC-theta Assay (384-well time resolved fluorescence, IMAP TR-FRET)). Settings: Table 2; read-out: Act. Level (IC50 in the PKC-theta Assay).
T1 construct: His; purchased Invitrogen
T1 sequence (Q04759 whole entry): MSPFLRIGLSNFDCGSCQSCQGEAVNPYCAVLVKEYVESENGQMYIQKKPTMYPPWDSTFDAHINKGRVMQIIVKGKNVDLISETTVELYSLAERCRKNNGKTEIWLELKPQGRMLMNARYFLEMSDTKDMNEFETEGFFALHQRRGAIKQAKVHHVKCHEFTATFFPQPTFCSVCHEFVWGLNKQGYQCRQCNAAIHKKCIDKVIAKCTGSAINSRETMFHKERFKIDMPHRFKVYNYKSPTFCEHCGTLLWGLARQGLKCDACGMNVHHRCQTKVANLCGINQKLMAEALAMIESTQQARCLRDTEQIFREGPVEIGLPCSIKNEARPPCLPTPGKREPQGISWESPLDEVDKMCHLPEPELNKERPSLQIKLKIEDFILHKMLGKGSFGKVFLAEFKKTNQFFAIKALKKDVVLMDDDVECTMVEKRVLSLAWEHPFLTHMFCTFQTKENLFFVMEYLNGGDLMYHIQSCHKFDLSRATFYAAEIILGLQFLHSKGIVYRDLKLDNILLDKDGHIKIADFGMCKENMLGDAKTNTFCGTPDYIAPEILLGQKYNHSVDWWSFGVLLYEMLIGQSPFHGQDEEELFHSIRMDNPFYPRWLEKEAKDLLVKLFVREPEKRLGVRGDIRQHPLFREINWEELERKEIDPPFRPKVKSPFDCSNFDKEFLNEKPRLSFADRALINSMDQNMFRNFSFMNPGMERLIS
Type: biochemical
In short: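 Fam-labeled S6-derived peptide (200 nM) and 10 μM ATP were reacted with 142 pM enzyme for 2 h at room temperature in HEPES pH 7.6 buffer with MgCl2, DTT, Triton X-100, BSA and EDTA. The reaction was stopped with IMAP progressive binding reagent plus Tb donor, incubated overnight, then TR-FRET read.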
Molecule `CN(C)S(=O)(=O)c1ccc(CCNc2ncc(C#N)c(N[C@@H]3CC[C@H](O)C(C)(C)C3)n2)cc1` [Cmpd 175] has an IC50 of 100 to 800 nM. Work on `CC1(C)C[C@H](Nc2nc(NCCc3ccc(S(=O)(=O)N4CCC4)cc3)ncc2C#N)CC[C@@H]1O` [Cmpd 176] yielded an IC50 of 100 to 800 nM. With `CC1(C)C[C@H](Nc2nc(NCCc3ccc(S(=O)(=O)N4CCOCC4)cc3)ncc2C#N)CC[C@@H]1O` [Cmpd 177] the IC50 was 100 to 800 nM. `CC1(C)C[C@H](Nc2nc(NCCc3ccc(S(=O)(=O)N4CCCCC4)cc3)ncc2C#N)CC[C@@H]1O` [Cmpd 178] showed an IC50 of 100 to 800 nM. Molecule `CN1CCN(S(=O)(=O)c2ccc(CCNc3ncc(C#N)c(N[C@@H]4CC[C@H](O)C(C)(C)C4)n3)cc2)CC1` [Cmpd 179] has an IC50 of 100 to 800 nM. For `CC1(C)C[C@H](Nc2nc(NCCc3ccc(-n4ccnc4)c(Cl)c3)ncc2C#N)CC[C@@H]1O` [Cmpd 180], the IC50 was < 100 nM. With `CC1(C)C[C@H](Nc2nc(NCCc3ccc(-n4cccn4)c(Cl)c3)ncc2C#N)CC[C@@H]1O` [Cmpd 181] the IC50 was < 100 nM. `CC1(C)C[C@H](Nc2nc(NCCc3cccc(Cl)c3C(F)(F)F)ncc2C#N)CC[C@@H]1O` [Cmpd 182] gave an IC50 of 100 to 800 nM. `CC1(C)C[C@H](Nc2nc(NCCc3cc(Cl)ccc3C(F)(F)F)ncc2C#N)CC[C@@H]1O` [Cmpd 183] gave an IC50 of 100 to 800 nM. With `CC1(C)C[C@H](Nc2nc(NCCc3cc(F)cc(Cl)c3)ncc2C#N)CC[C@@H]1O` [Cmpd 184] the IC50 was < 100 nM. Molecule `CC1(C)C[C@H](Nc2nc(NCCc3ccc(S(=O)(=O)C(F)(F)F)cc3)ncc2C#N)CC[C@@H]1O` [Cmpd 185] has an IC50 of 100 to 800 nM. In the case of `CC1(C)C[C@H](Nc2nc(NCCc3ccc(S(N)(=O)=O)c(Cl)c3)ncc2C#N)CC[C@@H]1O` [Cmpd 186], the IC50 is reported as < 100 nM. `CC1(C)C[C@@H](O)CC[C@@H]1Nc1nc(NCCc2cccc(Cl)c2)ncc1C#N` [Cmpd 187] was tested, and the IC50 was 2000 to 10000 nM. Molecule `CC1(C)C[C@H](O)CC[C@H]1Nc1nc(NCCc2cccc(Cl)c2)ncc1C#N` [Cmpd 188] has an IC50 of 100 to 800 nM. Work on `CC1(C)C[C@H](O)CC[C@@H]1Nc1nc(NCCc2cccc(Cl)c2)ncc1C#N` [Cmpd 189] yielded an IC50 of 800 to 2000 nM. With `CC1(C)C[C@@H](O)CC[C@H]1Nc1nc(NCCc2cccc(Cl)c2)ncc1C#N` [Cmpd 190] the IC50 was < 100 nM. For `Cc1nnnn1-c1ccc(CCNc2ncc(C#N)c(N[C@@H]3CCC[C@@](C)(O)C3)n2)cc1` [Cmpd 191], the IC50 was 2000 to 10000 nM. With `N#Cc1ccc(CCNc2ncc(C#N)c(N[C@H]3C[C@@H](C(N)=O)C3)n2)cc1` [Cmpd 192] the IC50 was 2000 to 10000 nM. Molecule `CC1(C)C[C@H](Nc2nc(NCCc3cc(Cl)ccc3S(N)(=O)=O)ncc2C#N)CC[C@@H]1O` [Cmpd 193] has an IC50 of 100 to 800 nM. Molecule `CC1(C)[C@@H](C(N)=O)C[C@H]1Nc1nc(NCCc2ccc(C#N)cc2)ncc1C#N` [Cmpd 194] has an IC50 of 100 to 800 nM. `N#Cc1cnc(NCCc2ccc(-n3ccnc3)c(F)c2)nc1N[C@H]1CC[C@@H](C(N)=O)CC1` [Cmpd 195] was tested, and the IC50 was < 100 nM. For `CC1(C)C[C@H](Nc2nc(NCCc3cccc(F)c3)ncc2C#N)CC[C@@H]1O` [Cmpd 196], the IC50 was < 100 nM. For `CC1(C)C[C@H](Nc2nc(NCCc3ccc(F)cc3F)ncc2C#N)CC[C@@H]1O` [Cmpd 197], the IC50 was 100 to 800 nM. Molecule `N#Cc1cnc(NCCc2cccc(F)c2)nc1N[C@H]1CC[C@@H](O)CC1` [Cmpd 198] has an IC50 of 100 to 800 nM.

Same assay, conditions: read-out: Act. Level (IC50 in the PKC-theta Assay)
`COc1cccc2[nH]cc(CCNc3ncc(C#N)c(N[C@@H]4CC[C@H](O)C(C)(C)C4)n3)c12` [Cmpd 175] was tested, and the IC50 was 100 to 800 nM. Work on `CC1(C)C[C@H](Nc2nc(NCCc3n[nH]c4ccccc34)ncc2C#N)CC[C@@H]1O` [Cmpd 176] yielded an IC50 of 800 to 2000 nM. `COc1cccc2c(CCNc3ncc(C#N)c(N[C@@H]4CC[C@H](O)C(C)(C)C4)n3)c[nH]c12` [Cmpd 177] showed an IC50 of 100 to 800 nM. With `N#Cc1cnc(NCCc2c[nH]c3ccc(F)cc23)nc1N[C@H]1CC[C@@H](C(N)=O)CC1` [Cmpd 178] the IC50 was < 100 nM. With `N#Cc1cnc(NCCC2C(=O)Nc3ccccc32)nc1N[C@H]1CC[C@@H](C(N)=O)CC1` (stereo partly drawn) [Cmpd 179] the IC50 was < 100 nM. For `CCc1ccc2c(c1)C(CCNc1ncc(C#N)c(N[C@H]3CC[C@@H](C(N)=O)CC3)n1)C(=O)N2` (stereo partly drawn) [Cmpd 180], the IC50 was < 100 nM. `CC1(C)C[C@H](Nc2nc(NCCc3c[nH]c4ccc(F)cc34)ncc2C#N)CC[C@@H]1O` [Cmpd 181] was tested, and the IC50 was 100 to 800 nM. `CC1(C)C[C@H](Nc2nc(NCCc3c[nH]c4c(F)cccc34)ncc2C#N)CC[C@@H]1O` [Cmpd 182] was tested, and the IC50 was < 100 nM. In the case of `COc1ccc2c(CCNc3ncc(C#N)c(N[C@@H]4CC[C@H](O)C(C)(C)C4)n3)c[nH]c2c1` [Cmpd 183], the IC50 is reported as < 100 nM. Work on `CC1(C)C[C@H](Nc2nc(NCCC3(O)C(=O)Nc4ccccc43)ncc2C#N)CC[C@@H]1O` (stereo partly drawn) [Cmpd 184] yielded an IC50 of 100 to 800 nM. For `CC1(C)C[C@H](Nc2nc(NCCc3cccs3)ncc2C#N)CC[C@@H]1O` [Cmpd 185], the IC50 was 100 to 800 nM. `CC1(C)[C@@H](O)C[C@H]1Nc1nc(NCCc2ccncc2)ncc1C#N` [Cmpd 186] gave an IC50 of 800 to 2000 nM. With `CC1(C)[C@@H](O)C[C@H]1Nc1nc(NCCc2ccccn2)ncc1C#N` [Cmpd 187] the IC50 was 2000 to 10000 nM. In the case of `CC1(C)[C@@H](O)C[C@H]1Nc1nc(NCCCn2ccnc2)ncc1C#N` [Cmpd 188], the IC50 is reported as 2000 to 10000 nM. `CC1(C)[C@@H](O)C[C@H]1Nc1nc(NCCc2cccs2)ncc1C#N` [Cmpd 189] was tested, and the IC50 was 100 to 800 nM. `CC1(C)[C@@H](O)C[C@H]1Nc1nc(NCCc2cccc3cccnc23)ncc1C#N` [Cmpd 190] gave an IC50 of 2000 to 10000 nM. With `CC1(C)C[C@H](Nc2nc(NCCc3ncon3)ncc2C#N)CC[C@@H]1O` [Cmpd 191] the IC50 was 2000 to 10000 nM. With `Cc1ccc(CCNc2ncc(C#N)c(N[C@@H]3CC[C@H](O)C(C)(C)C3)n2)o1` [Cmpd 192] the IC50 was 100 to 800 nM. In the case of `Cc1ccnn1CCNc1ncc(C#N)c(N[C@@H]2CC[C@H](O)C(C)(C)C2)n1` [Cmpd 193], the IC50 is reported as 2000 to 10000 nM. For `Cc1ccn(CCNc2ncc(C#N)c(N[C@@H]3CC[C@H](O)C(C)(C)C3)n2)n1` [Cmpd 194], the IC50 was 2000 to 10000 nM. `Cc1nc(CCNc2ncc(C#N)c(N[C@@H]3CC[C@H](O)C(C)(C)C3)n2)no1` [Cmpd 195] was tested, and the IC50 was 2000 to 10000 nM. Molecule `CC1(C)C[C@H](Nc2nc(NCCc3ccco3)ncc2C#N)CC[C@@H]1O` [Cmpd 196] has an IC50 of 100 to 800 nM. With `Cc1ccc(CCNc2ncc(C#N)c(N[C@@H]3CC[C@H](O)C(C)(C)C3)n2)cn1` [Cmpd 197] the IC50 was 800 to 2000 nM. Work on `Cc1cc(C)n(CCNc2ncc(C#N)c(N[C@@H]3CC[C@H](O)C(C)(C)C3)n2)n1` [Cmpd 198] yielded an IC50 of 2000 to 10000 nM. In the case of `CC1(C)C[C@H](Nc2nc(NCCC3C(=O)Nc4ccccc43)ncc2C#N)CC[C@@H]1O` (stereo partly drawn) [Cmpd 247], the IC50 is reported as < 100 nM. In the case of `CCc1ccc2c(c1)C(CCNc1ncc(C#N)c(N[C@@H]3C[C@H](O)C3(C)C)n1)C(=O)N2` (stereo partly drawn) [Cmpd 261], the IC50 is reported as < 100 nM. `CC1(C)C[C@H](Nc2nc(NCCn3c(=O)[nH]c4ccccc43)ncc2C#N)CC[C@@H]1O` [Cmpd 293] was tested, and the IC50 was 2000 to 10000 nM.
